Marks after values point to notes of the source that are not given here.
Assays:
[1] = system: croton oil-induced oedema in mice ears; assay: Croton oil ear test (oedema), topical; settings: for Activity Ratio on Molar basis: Indomethacin = 1; for ID50 / ID50 (column head printed: Activity Ratio): croton oil ear test in mice, Italian institute data
[2] = system: granulocyte infiltration (MPO activity); assay: Granulocyte infiltration (MPO activity) in the croton oil ear test; type: in vivo, mice; settings: One unit = 1 nMol/min. of tetraguaiacol formed at 25°C
[3] = system: Carrageenan-induced Mice Paw Oedema; assay: Carrageenan-induced paw oedema in mice, topical application; type: in vivo; settings: topical Indomethacin
Method: The duration of action of topical preparation was determined by studying the effects of different concentrations of the drug on oedema over a period of 8 hr. As evident from the Table 3, the peak inhibition was observed after 3-4 hours of carrageenan injection begining at 2 hr for the extract at lower concentrations (0.5-2.0%) and 1 hr. at 4 % concentration.

[4] = system: Carrageenan-induced Pedal Oedema; assay: Carrageenan-induced pedal oedema in rats (oral extract, intraperitoneal indomethacin); type: in vivo; settings: for Oedema + SEM (%): intraperitoneal
[5] = 1.26µMol, 6 hours after treatment
[6] = 1.26µMol, 18 hours after treatment
[7] = 1.26µMol, 30 hours after treatment

O=c1cc(-c2ccc(O)cc2)oc2cc(O[C@@H]3O[C@H](CO)[C@@H](O)[C@H](O)[C@H]3O)cc(O)c12 [Apigenin-7-glucoside]
Activity Ratio on Molar basis [1]: 0.32
ID50 [1]: 175 µg/ear
ID50 (column head printed: Activity Ratio) [1]: 0.404 µmol/ear

C[C@]12CCC(=O)C=C1CC[C@@H]1[C@@H]2[C@@H](O)C[C@@]2(C)[C@H]1CC[C@]2(O)C(=O)CO [Hydrocortisone]
Effect on granulocyte infiltration (MPO activity) ([2]; 0.41µMol, 6 hours after treatment): 0.0±0.2 unit
Effect on granulocyte infiltration (MPO activity) ([2]; 0.41µMol, 18 hours after treatment): 6.9±2.1 unit
Effect on granulocyte infiltration (MPO activity) ([2]; 0.41µMol, 30 hours after treatment): 8.2±2.4 unit
Effect on Oedema Development ([1]; 0.41 µMol, 6 hours after treatment): 0.5 ± 0.2 mg
Effect on Oedema Development ([1]; 0.41 µMol, 18 hours after treatment): 0.7 ± 0.1 mg
Effect on Oedema Development ([1]; 0.41 µMol, 30 hours after treatment): 0.7 ± 0.1 mg
antiinflammatory activity (oedema) in words ([1]; 18 hours after treatment): maintain their effect to a certain extent
Activity Ratio on Molar basis [1]: 14.00
ID50 [1]: 3.3 µg/ear
ID50 (column head printed: Activity Ratio) [1]: 0.009 µmol/ear

COc1ccc2c(c1)c(CC(=O)O)c(C)n2C(=O)c1ccc(Cl)cc1 [Indomethacin]
inhibition of Carrageenan-induced Mice Paw Oedema ([3]; Dose 1.00 %, +60 m): 18.2** %
inhibition of Carrageenan-induced Mice Paw Oedema ([3]; Dose 1.00 %, +120 m): 24.0** %
inhibition of Carrageenan-induced Mice Paw Oedema ([3]; Dose 1.00 %, +180 m): 29.0** %
inhibition of Carrageenan-induced Mice Paw Oedema ([3]; Dose 1.00 %, +240 m): 21.2** %
inhibition of Carrageenan-induced Mice Paw Oedema ([3]; Dose 1.00 %, +360 m): 9.6** %
inhibition of Carrageenan-induced Mice Paw Oedema ([3]; Dose 1.00 %, +480 m): 4.6%
inhibition of Carrageenan-induced Mice Paw Oedema ([3]; Dose 2.00 %, +60 m): 24.2* %
inhibition of Carrageenan-induced Mice Paw Oedema ([3]; Dose 2.00 %, +120 m): 26.0* %
inhibition of Carrageenan-induced Mice Paw Oedema ([3]; Dose 2.00 %, +180 m): 41.9*** %
inhibition of Carrageenan-induced Mice Paw Oedema ([3]; Dose 2.00 %, +180 m, listed as indomethacin): 41.9%
inhibition of Carrageenan-induced Mice Paw Oedema ([3]; Dose 2.00 %, +240 m): 36.4* %
inhibition of Carrageenan-induced Mice Paw Oedema ([3]; Dose 2.00 %, +360 m): 11.5* %
inhibition of Carrageenan-induced Mice Paw Oedema ([3]; Dose 2.00 %, +480 m): 10.6%
inhibition of oedema ([4]; 1mg/kg, i.p.): 74%
Oedema + SEM (%) ([4]; 0.5 mg/Kg, +30 min): 13.6±4.0%
Oedema + SEM (%) ([4]; 0.5 mg/Kg, +60 min): 18.9±4.0%
Oedema + SEM (%) ([4]; 0.5 mg/Kg, +120 min): 28.8±4.2%
Oedema + SEM (%) ([4]; 1.0 mg/Kg, +30 min): 9.3±2.3%
Oedema + SEM (%) ([4]; 1.0 mg/Kg, +60 min): 12.3±2.2%
Oedema + SEM (%) ([4]; 1.0 mg/Kg, +120 min): 16.4±1.6%
Oedema + SEM (%) ([4]; 2.0 mg/Kg, +30 min): 8.2±1.5%
Oedema + SEM (%) ([4]; 2.0 mg/Kg, +60 min): 12.8±1.8%
Effect on granulocyte infiltration (MPO activity) [2, 5]: 0.0±0.1 unit
Effect on granulocyte infiltration (MPO activity) [2, 6]: 10.0±1.6 unit
Effect on granulocyte infiltration (MPO activity) [2, 7]: 6.8±3.4 unit
Effect on Oedema Development [1, 5]: 0.0 ± 0.1 mg
Effect on Oedema Development [1, 6]: 3.1 ± 0.4 mg
Effect on Oedema Development [1, 7]: 0.5 ± 0.1 mg
antiinflammatory activity (oedema) in words ([1]; 18 hours after treatment): lose their antiinflammatory activity
Activity Ratio on Molar basis [1]: 1.00
ID50 [1]: 46.1 µg/ear
ID50 (column head printed: Activity Ratio) [1]: 0.126 µmol/ear

O=c1c(O)c(-c2ccc(O)c(O)c2)oc2cc(O)cc(O)c12 [Quercetin]
Activity Ratio on Molar basis [1]: 0.65
ID50 [1]: 60.3 µg/ear
ID50 (column head printed: Activity Ratio) [1]: 0.200 µmol/ear

C[C@@H]1O[C@@H](OC[C@H]2O[C@@H](Oc3c(-c4ccc(O)c(O)c4)oc4cc(O)cc(O)c4c3=O)[C@H](O)[C@@H](O)[C@@H]2O)[C@H](O)[C@H](O)[C@H]1O [Rutin]
Activity Ratio on Molar basis [1]: 0.28
ID50 [1]: 282 µg/ear
ID50 (column head printed: Activity Ratio) [1]: 0.462 µmol/ear

Source: EP0868914B1, “USE OF A FLAVONOID-CONTAINING EXTRACT OF THE PLANT EUPHORBIA PROSTRATA IN THE MANUFACTURE OF A MEDICAMENT FOR THE TREATMENT OF AN ANORECTIC OR COLONIC DISEASE” (PANACEA BIOTEC LIMITED, priority 1997, dated 1998)
